The results in this text go back to patent US10138255B2, “Piperazine derivatives as HIV protease inhibitors” (Merck Sharp & Dohme Corp., priority 2014, dated 2018).

This assay deals with HIV-1 (H9IIIB strain). Kind of assay: Cell-Based HIV Infection Assay Using a Reporter (MT4-GFP cells). The settings on record: Human immunodeficiency virus 1, inflection point (IP) of viral growth inhibition; MT4-GFP cells infected with HIV-1 H9IIIB; 50% normal human serum; mean of at least two independent experiments; read-out: Cell Based IP (50% NHS). An outline of the steps: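 Inflection point from a 4-parameter curve of % viral growth inhibition, normalised to DMSO and triple-drug controls, using the 48 h/24 h ratio of GFP-positive cells (R0). MT4-GFP cells pre-infected 24 h with HIV-1 H9IIIB at low MOI; compounds tested in 50% normal human serum, 0.4% DMSO; mean of ≥2 experiments.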

For the compound `COC[C@H]1CC[C@H]([C@H](c2ccc(Cl)cc2)[C@H](N)C(=O)Nc2cncc(F)c2CC[C@H]2CN[C@@H]3CCCS(=O)(=O)N2C3)CC1` [Example 254, (βR)-4-chloro-N-(4-{2-[(6R,9S)-2,2-dioxido-2-thia-1,7-diazabicyclo[4.3.1]dec-9-yl]ethyl}-5-fluoropyridin-3-yl)-β-[(1r,4R)-4-(methoxymethyl)cyclohexyl]-L-phenylalaninamide], the EC50 came to 3 nM.
With `CCOC(=O)N1CCC(c2ccc(Cl)cc2)([C@H](NC(=O)OC)C(=O)Nc2cccc(F)c2CC[C@H]2CN[C@@H]3CCCS(=O)(=O)N2C3)CC1` [Example 255, ethyl 4-(4-chlorophenyl)-4-{(1S)-2-[(2-{2-[(6R,9S)-2,2-dioxido-2-thia-1,7-diazabicyclo[4.3.1]dec-9-yl]ethyl}-3-fluorophenyl)amino]-1-[(methoxycarbonyl)amino]-2-oxoethyl}piperidine-1-carboxylate] the figure was 18 nM.
Regarding `COC(=O)N[C@H](C(=O)Nc1cncc(F)c1CC[C@H]1CN[C@@H]2CCCS(=O)(=O)N1C2)[C@@H](c1ccc(Cl)cc1)[C@H]1CC[C@H](C(F)(F)F)CC1` [Example 256, methyl {(1S,2R)-2-(4-chlorophenyl)-1-[(4-{2-[(6R,9S)-2,2-dioxido-2-thia-1,7-diazabicyclo[4.3.1]dec-9-yl]ethyl}-5-fluoropyridin-3-yl)carbamoyl]-2-[(1r,4R)-4-(trifluoromethyl)cyclohexyl]ethyl}carbamate], the EC50 stood at 8.2 nM.
On to `COC(=O)N[C@H](C(=O)Nc1cccc(F)c1CC[C@H]1CN[C@@H]2CCCS(=O)(=O)N1C2)[C@@H](c1ccc(Cl)cc1)[C@H]1CC[C@H](OC2CC2)CC1` [Example 257, methyl {(1S,2R)-2-(4-chlorophenyl)-2-[(1r,4R)-4-(cyclopropyloxy)cyclohexyl]-1-[(2-{2-[(6R,9S)-2,2-dioxido-2-thia-1,7-diazabicyclo[4.3.1]dec-9-yl]ethyl}-3-fluorophenyl)carbamoyl]ethyl}carbamate], for which the EC50 turned out to be 5.6 nM.
Consider `CCOC[C@H]1CC[C@H]([C@H](c2ccc(Cl)cc2)[C@H](N)C(=O)Nc2cncc(F)c2CC[C@H]2CN[C@@H]3CCCS(=O)(=O)N2C3)CC1` [Example 258, (βR)-4-chloro-N-(4-{2-[(6R,9S)-2,2-dioxido-2-thia-1,7-diazabicyclo[4.3.1]dec-9-yl]ethyl}-5-fluoropyridin-3-yl)-β-[(1r,4R)-4-(ethoxymethyl)cyclohexyl]-L-phenylalaninamide], for which the EC50 stood at 3.4 nM.
With `CC(C)Oc1cnc([C@H](c2ccc(Cl)cc2)[C@H](N)C(=O)Nc2cccc(F)c2CC[C@H]2CN[C@@H]3CCCS(=O)(=O)N2C3)cn1` [Example 259, (βR)-4-chloro-N-(2-{2-[(6R,9S)-2,2-dioxido-2-thia-1,7-diazabicyclo[4.3.1]dec-9-yl]ethyl}-3-fluorophenyl)-β-[5-(1-methylethoxy)pyrazin-2-yl]-L-phenylalaninamide] the figure was 4.2 nM.
`Cn1nc([C@H](c2ccc(Cl)cc2)[C@H](N)C(=O)Nc2cccc(F)c2CC[C@H]2CN[C@@H]3CCCS(=O)(=O)N2C3)cc1C(F)(F)F` [Example 260, (βR)-4-chloro-N-(2-{2-[(6R,9S)-2,2-dioxido-2-thia-1,7-diazabicyclo[4.3.1]dec-9-yl]ethyl}-3-fluorophenyl)-β-[1-methyl-5-(trifluoromethyl)-1H-pyrazol-3-yl]-L-phenylalaninamide]: the EC50 was determined as 4.4 nM.
`Cn1nc(C(F)(F)F)cc1[C@H](c1ccc(Cl)cc1)[C@H](N)C(=O)Nc1cccc(F)c1CC[C@H]1CN[C@@H]2CCCS(=O)(=O)N1C2` [Example 261, (βR)-4-chloro-N-(2-{2-[(6R,9S)-2,2-dioxido-2-thia-1,7-diazabicyclo[4.3.1]dec-9-yl]ethyl}-3-fluorophenyl)-β-[1-methyl-3-(trifluoromethyl)-1H-pyrazol-5-yl]-L-phenylalaninamide]: the EC50 came to 8.7 nM.
As for `Cn1nc(C(F)(F)F)cc1[C@H](c1ccc(Cl)cc1)[C@H](N)C(=O)Nc1cncc(F)c1CC[C@H]1CN[C@@H]2CCCS(=O)(=O)N1C2` [Example 262, (βR)-4-chloro-N-(4-{2-[(6R,9S)-2,2-dioxido-2-thia-1,7-diazabicyclo[4.3.1]dec-9-yl]ethyl}-5-fluoropyridin-3-yl)-β-[1-methyl-3-(trifluoromethyl)-1H-pyrazol-5-yl]-L-phenylalaninamide], the EC50 was found to be 22 nM.
On to `CC(C)Oc1cnc([C@H](c2ccc(Cl)cc2)[C@H](N)C(=O)Nc2cncc(F)c2CC[C@H]2CN[C@@H]3CCCS(=O)(=O)N2C3)cn1` [Example 263, (βR)-4-chloro-N-(4-{2-[(6R,9S)-2,2-dioxido-2-thia-1,7-diazabicyclo[4.3.1]dec-9-yl]ethyl}-5-fluoropyridin-3-yl)-β-[5-(1-methylethoxy)pyrazin-2-yl]-L-phenylalaninamide], for which the EC50 was 5.2 nM.
With `N[C@H](C(=O)Nc1cccc(F)c1CC[C@H]1CN[C@@H]2CCCS(=O)(=O)N1C2)[C@@H](c1ccc(Cl)cc1)c1nc(C(F)(F)F)cs1` [Example 264, (βR)-4-chloro-N-(2-{2-[(6R,9S)-2,2-dioxido-2-thia-1,7-diazabicyclo[4.3.1]dec-9-yl]ethyl}-3-fluorophenyl)-β-[4-(trifluoromethyl)-1,3-thiazol-2-yl]-L-phenylalaninamide] the figure was 6.9 nM; with `Cn1nc([C@H](c2ccc(Cl)c(F)c2)[C@H](N)C(=O)Nc2cccc(F)c2CC[C@H]2CN[C@@H]3CCCS(=O)(=O)N2C3)cc1C(F)(F)F` [Example 265, (βR)-4-chloro-N-(2-{2-[(6R,9S)-2,2-dioxido-2-thia-1,7-diazabicyclo[4.3.1]dec-9-yl]ethyl}-3-fluorophenyl)-3-fluoro-β-[1-methyl-5-(trifluoromethyl)-1H-pyrazol-3-yl]-L-phenylalaninamide], 9.8 nM; with `Cn1nc([C@H](c2ccc(Cl)c(F)c2)[C@H](N)C(=O)Nc2cncc(F)c2CC[C@H]2CN[C@@H]3CCCS(=O)(=O)N2C3)cc1C(F)(F)F` [Example 266, (βR)-4-chloro-N-(4-{2-[(6R,9S)-2,2-dioxido-2-thia-1,7-diazabicyclo[4.3.1]dec-9-yl]ethyl}-5-fluoropyridin-3-yl)-3-fluoro-β-[1-methyl-5-(trifluoromethyl)-1H-pyrazol-3-yl]-L-phenylalaninamide], 11 nM.
For `Cn1nc(C(F)(F)F)cc1[C@H](c1ccc(Cl)c(F)c1)[C@H](N)C(=O)Nc1cccc(F)c1CC[C@H]1CN[C@@H]2CCCS(=O)(=O)N1C2` [Example 267, (βR)-4-chloro-N-(2-{2-[(6R,9S)-2,2-dioxido-2-thia-1,7-diazabicyclo[4.3.1]dec-9-yl]ethyl}-3-fluorophenyl)-3-fluoro-β-[1-methyl-3-(trifluoromethyl)-1H-pyrazol-5-yl]-L-phenylalaninamide], the EC50 was found to be 8 nM.
For `Cn1nc(C(F)(F)F)cc1[C@H](c1ccc(Cl)c(F)c1)[C@H](N)C(=O)Nc1cncc(F)c1CC[C@H]1CN[C@@H]2CCCS(=O)(=O)N1C2` [Example 268, (βR)-4-chloro-N-(4-{2-[(6R,9S)-2,2-dioxido-2-thia-1,7-diazabicyclo[4.3.1]dec-9-yl]ethyl}-5-fluoropyridin-3-yl)-3-fluoro-β-[1-methyl-3-(trifluoromethyl)-1H-pyrazol-5-yl]-L-phenylalaninamide], the EC50 was determined as 18 nM.
`N[C@H](C(=O)Nc1cncc(F)c1CC[C@H]1CN[C@@H]2CCCS(=O)(=O)N1C2)[C@@H](c1ccc(Cl)cc1)c1csc(C(F)(F)F)n1` [Example 269, (βR)-4-chloro-N-(4-{2-[(6R,9S)-2,2-dioxido-2-thia-1,7-diazabicyclo[4.3.1]dec-9-yl]ethyl}-5-fluoropyridin-3-yl)-β-[2-(trifluoromethyl)-1,3-thiazol-4-yl]-L-phenylalaninamide]: the EC50 is 5 nM.
With `COC(=O)N[C@H](C(=O)Nc1cccc(F)c1CC[C@H]1CN[C@@H]2CCCS(=O)(=O)N1C2)[C@@H](c1ccc(Cl)cc1)C1CCC(C)(C)OC1` (stereo partly drawn) [Example 271, methyl {(1S,2R)-2-(4-chlorophenyl)-2-(6,6-dimethyltetrahydro-2H-pyran-3-yl)-1-[(2-{2-[(6R,9S)-2,2-dioxido-2-thia-1,7-diazabicyclo[4.3.1]dec-9-yl]ethyl}-3-fluorophenyl)carbamoyl]ethyl}carbamate] the figure was 7 nM; with `N[C@H](C(=O)Nc1cncc(F)c1CC[C@H]1CN[C@@H]2CCCS(=O)(=O)N1C2)[C@@H](c1ccc(Cl)cc1)C1CCCC(F)(F)C1` (stereo partly drawn) [Example 272, (βR)-4-chloro-β-(3,3-difluorocyclohexyl)-N-(4-{2-[(6R,9S)-2,2-dioxido-2-thia-1,7-diazabicyclo[4.3.1]dec-9-yl]ethyl}-5-fluoropyridin-3-yl)-L-phenylalaninamide], 5.7 nM.
Take `COC(=O)N[C@H](C(=O)Nc1cccc(F)c1CC[C@H]1CN[C@@H]2CCCS(=O)(=O)N1C2)[C@@H](c1ccc(Cl)cc1)C1CCC(C(F)(F)F)OC1` (stereo partly drawn) [Example 273, methyl {(1S,2R)-2-(4-chlorophenyl)-1-[(2-{2-[(6R,9S)-2,2-dioxido-2-thia-1,7-diazabicyclo[4.3.1]dec-9-yl]ethyl}-3-fluorophenyl)carbamoyl]-2-[6-(trifluoromethyl)tetrahydro-2H-pyran-3-yl]ethyl}carbamate]: the EC50 worked out at 14 nM.
Turning to `N[C@H](C(=O)Nc1cccc(F)c1CC[C@H]1CNC[C@@H]2CCCS(=O)(=O)N1C2)[C@@H](c1ccc(Cl)cc1)C1CCOCC1` [Example 274, (2S,3R)-2-Amino-3-(4-chlorophenyl)-N-(2-(2-((6S,10S)-2,2-dioxido-2-thia-1,8-diazabicyclo[4.4.1]undecan-10-yl)ethyl)-3-fluorophenyl)-3-(tetrahydro-2H-pyran-4-yl)propanamide], the EC50 is 670 nM.
